Test results: PubChem BioAssay (NCI)
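Interpolation was linear, between the two tested concentrations surrounding the appropriate level; five concentrations were tested over 48 hours in 96-well plates. Definition used: TGI = concentration required for complete inhibition of growth.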

Assays:
Assay in all cases: NCI-60 cell line screen, 48 h
RXF 393 renal = test system: RXF 393 renal
HCT-15 colon = test system: HCT-15 colon
NCI-H226 lung = test system: NCI-H226 lung
CAKI-1 renal = test system: CAKI-1 renal
DU-145 prostate = test system: DU-145 prostate
SK-MEL-2 melanoma = test system: SK-MEL-2 melanoma
T-47D breast = test system: T-47D breast
TK-10 renal = test system: TK-10 renal
K-562 leukemia = test system: K-562 leukemia
NCI-H522 lung = test system: NCI-H522 lung
SW-620 colon = test system: SW-620 colon
SNB-19 CNS = test system: SNB-19 CNS
MOLT-4 leukemia = test system: MOLT-4 leukemia
LOX IMVI melanoma = test system: LOX IMVI melanoma
SK-OV-3 ovarian = test system: SK-OV-3 ovarian
SN12C renal = test system: SN12C renal
NCI-H460 lung = test system: NCI-H460 lung
SF-539 CNS = test system: SF-539 CNS
COLO 205 colon = test system: COLO 205 colon
SF-268 CNS = test system: SF-268 CNS
U251 CNS = test system: U251 CNS
HOP-62 NSCLC = test system: HOP-62 NSCLC
HCC-2998 colon = test system: HCC-2998 colon
MDA-MB-231 breast = test system: MDA-MB-231 breast
MDA-N = test system: MDA-N
NCI/ADR-RES ovarian = test system: NCI/ADR-RES ovarian
HL-60(TB) leukemia = test system: HL-60(TB) leukemia
NCI-H23 lung = test system: NCI-H23 lung
SF-295 CNS = test system: SF-295 CNS
SK-MEL-28 melanoma = test system: SK-MEL-28 melanoma
OVCAR-5 ovarian = test system: OVCAR-5 ovarian
HS 578T breast = test system: HS 578T breast
OVCAR-3 ovarian = test system: OVCAR-3 ovarian
UACC-62 melanoma = test system: UACC-62 melanoma
OVCAR-4 ovarian = test system: OVCAR-4 ovarian
CCRF-CEM leukemia = test system: CCRF-CEM leukemia
EKVX NSCLC = test system: EKVX NSCLC
BT-549 breast = test system: BT-549 breast
M14 melanoma = test system: M14 melanoma
SK-MEL-5 melanoma = test system: SK-MEL-5 melanoma
UO-31 renal = test system: UO-31 renal
PC-3 prostate = test system: PC-3 prostate
MDA-MB-435 = test system: MDA-MB-435
KM12 colon = test system: KM12 colon
MCF7 breast = test system: MCF7 breast

COc1cc2cc(C(=O)N3CC(CCl)c4ccc(N(C)C)cc43)[nH]c2c(OC)c1OC (stereo not given)
TGI (RXF 393 renal): 76.1 nM
TGI (HCT-15 colon): > 59900 nM
TGI (NCI-H226 lung): 428 nM
TGI (CAKI-1 renal): 1280 nM
TGI (DU-145 prostate): 359 nM
TGI (SK-MEL-2 melanoma): 128 nM
TGI (T-47D breast): 378 nM
TGI (TK-10 renal): > 100000 nM
TGI (K-562 leukemia): > 100000 nM
TGI (NCI-H522 lung): 34.9 nM
TGI (SW-620 colon): 773 nM
TGI (SNB-19 CNS): 8210 nM
TGI (MOLT-4 leukemia): 443 nM
TGI (LOX IMVI melanoma): 289 nM
TGI (SK-OV-3 ovarian): 1540 nM
TGI (SN12C renal): 531 nM
TGI (NCI-H460 lung): 7010 nM
TGI (SF-539 CNS): 200 nM
TGI (COLO 205 colon): 213 nM
TGI (SF-268 CNS): 3810 nM
TGI (U251 CNS): 4050 nM
TGI (HOP-62 NSCLC): 265 nM
TGI (HCC-2998 colon): 106 nM
TGI (MDA-MB-231 breast): 627 nM
TGI (MDA-N): 431 nM
TGI (NCI/ADR-RES ovarian): 272 nM
TGI (HL-60(TB) leukemia): 292 nM
TGI (NCI-H23 lung): 118 nM
TGI (SF-295 CNS): 726 nM
TGI (SK-MEL-28 melanoma): 121 nM
TGI (OVCAR-5 ovarian): 259 nM
TGI (HS 578T breast): 758 nM
TGI (OVCAR-3 ovarian): 363 nM
TGI (UACC-62 melanoma): 524 nM
TGI (OVCAR-4 ovarian): 729 nM
TGI (CCRF-CEM leukemia): 633 nM
TGI (EKVX NSCLC): 558 nM
TGI (BT-549 breast): 1330 nM
TGI (M14 melanoma): 237 nM
TGI (SK-MEL-5 melanoma): 236 nM
TGI (UO-31 renal): 143 nM
TGI (PC-3 prostate): 979 nM
TGI (MDA-MB-435): 336 nM
TGI (KM12 colon): 543 nM
TGI (MCF7 breast): 604 nM
